Results on 7 compounds are retold here after US10570116B2, “1,4-dicarbonyl-piperidyl derivatives” (Merck Patent GmbH, priority 2015, dated 2020).

One assay deals with Tankyrase. Conditions: prior art value; read-out: cellular assay: EC50; cited from earlier work.
A further assay deals with PARP-1 (Homo sapiens (Human), UniProt P09874). Kind of assay: Biochemical activity testing of PARP-1: autoparsylation assay (HTRF). Conditions: His-tagged Parp-1, autoparsylation HTRF.
A further assay concerns the target TNKS2 (Homo sapiens (Human), UniProt Q9H2K2). Kind of assay: biochemical. Conditions: GST-tagged Tnks-2 (873-1166 aa); read-out: IC50 [M] TNKS2 ELISA. In kind it is biochemical.
The target in the next assay is TNKS1 (Homo sapiens (Human), UniProt O95271). Briefly: biochemical. Conditions: GST-tagged Tnks-1 (1023-1327 aa); read-out: IC50 [M] TNKS1 ELISA. It counts as biochemical.
In the next assay the test system is Tankyrases. Kind of assay: Measurement of cellular inhibition of Tankyrase (Axin2 level, Luminex based assay, DLD1 cells). In kind it is cell-based. Conditions: increase of Axin2 level, 24 hours, read-out: EC50 [M] TNKS cellular assay.
For another assay, the system named is DLD-1-cancer cells. Conditions: Huang et al., 2009; cited from earlier work.

Sequence of PARP-1 (P09874 whole entry, the tested form may be a part): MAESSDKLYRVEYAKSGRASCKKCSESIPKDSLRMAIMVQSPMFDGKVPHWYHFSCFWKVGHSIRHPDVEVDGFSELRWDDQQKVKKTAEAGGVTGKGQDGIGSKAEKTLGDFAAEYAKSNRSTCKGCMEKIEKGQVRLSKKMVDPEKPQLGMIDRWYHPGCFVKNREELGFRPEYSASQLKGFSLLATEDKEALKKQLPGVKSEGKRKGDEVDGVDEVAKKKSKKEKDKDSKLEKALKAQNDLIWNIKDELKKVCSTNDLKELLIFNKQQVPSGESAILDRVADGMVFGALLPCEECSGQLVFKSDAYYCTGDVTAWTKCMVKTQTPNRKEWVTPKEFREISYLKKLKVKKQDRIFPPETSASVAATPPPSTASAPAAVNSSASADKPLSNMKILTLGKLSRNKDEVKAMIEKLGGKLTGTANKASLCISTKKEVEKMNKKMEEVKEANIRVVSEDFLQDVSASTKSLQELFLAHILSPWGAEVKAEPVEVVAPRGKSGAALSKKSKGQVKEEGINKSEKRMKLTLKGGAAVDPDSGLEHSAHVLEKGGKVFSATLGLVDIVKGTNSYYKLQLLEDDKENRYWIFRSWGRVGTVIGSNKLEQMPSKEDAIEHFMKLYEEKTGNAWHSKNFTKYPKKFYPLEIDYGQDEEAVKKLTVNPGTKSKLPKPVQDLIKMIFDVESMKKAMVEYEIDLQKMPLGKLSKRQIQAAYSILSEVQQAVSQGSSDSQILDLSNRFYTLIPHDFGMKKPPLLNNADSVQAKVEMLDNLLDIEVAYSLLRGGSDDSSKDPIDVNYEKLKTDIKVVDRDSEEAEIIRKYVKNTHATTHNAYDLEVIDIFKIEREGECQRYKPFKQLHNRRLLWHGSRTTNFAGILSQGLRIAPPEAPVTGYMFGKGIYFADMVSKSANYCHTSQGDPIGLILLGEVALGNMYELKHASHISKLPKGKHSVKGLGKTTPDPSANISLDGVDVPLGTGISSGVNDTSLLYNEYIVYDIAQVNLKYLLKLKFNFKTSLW

On to `COc1ccc(C(=O)C2CCN(CC(=O)N(Cc3nc4c(c(=O)[nH]3)COCC4)CC3CC3)CC2)cc1` [benzoylpiperidine derivative], for which the EC50 on Tankyrase was 35 nM.

Turning to `COc1ccc(C(=O)C2CCN(C(=O)CC(C)(C)Cc3nc4c(cnn4C)c(=O)[nH]3)CC2)cn1` [Compound C21, 6-{4-[4-(6-Methoxy-pyridine-3-carbonyl)-piperidin-1-yl]-2,2-dimethyl-4-oxo-butyl}-1-methyl-1,5-dihydro-pyrazolo[3,4-d]pyrimidin-4-one], the IC50 on PARP-1 was greater than 30000 nM; at TNKS2, 2.1e-09 M; on TNKS1, 3.6e-09 M. In addition, the 50% effective concentration (EC50) with Tankyrases came out at 1.6e-08 M.

As for `Cn1cc(C(=O)C2CCN(C(=O)CC(C)(C)Cc3nc4c(cnn4C)c(=O)[nH]3)CC2)cn1` [Compound C20, 6-{2,2-Dimethyl-4-[4-(1-methyl-1H-pyrazole-4-carbonyl)-piperidin-1-yl]-4-oxo-butyl}-1-methyl-1,5-dihydro-pyrazolo[3,4-d]pyrimidin-4-one], the IC50 at PARP-1 is greater than 30000 nM; on TNKS2, 7.3e-10 M; at TNKS1, 9.2e-10 M. In addition, in the assay on Tankyrases, the EC50 came out at 1.9e-08 M.

On to `CCn1cc(C(=O)C2CCN(C(=O)CC(C)(C)Cc3nc4c(ccn4C)c(=O)[nH]3)CC2)cn1` [Compound C18, 2-{4-[4-(1-Ethyl-1H-pyrazole-4-carbonyl)-piperidin-1-yl]-2,2-dimethyl-4-oxo-butyl}-7-methyl-3,7-dihydro-pyrrolo[2,3-d]pyrimidin-4-one], for which the figures for the IC50 against PARP-1, on TNKS2 and on TNKS1 were greater than 30000 nM, 3.6e-10 M and 5.8e-10 M, respectively. Also, the EC50 in the assay with Tankyrases is 2.8e-09 M.

Regarding `Cn1cc(C(=O)C2CCN(C(=O)CC(C)(C)Cc3nc4c(ccn4C)c(=O)[nH]3)CC2)cn1` [Compound C17, 2-{2,2-Dimethyl-4-[4-(1-methyl-1H-pyrazole-4-carbonyl)-piperidin-1-yl]-4-oxo-butyl}-7-methyl-3,7-dihydro-pyrrolo[2,3-d]pyrimidin-4-one], the figures for the IC50 at PARP-1, on TNKS2 and on TNKS1 were greater than 30000 nM, 3.3e-10 M and 4.7e-10 M, respectively. In addition, in the assay with Tankyrases, the EC50 was 6.9e-09 M.

Regarding `Oc1nc(-c2ccc(C(F)(F)F)cc2)nc2c1CSCC2` [XAV939], the “growth of DLD-1-cancer cells” value in the assay with DLD-1-cancer cells is “inhibits growth”.

For `COc1ncc(C(=O)C2CCN(C(=O)CC(C)(C)Cc3nc4c(cnn4C)c(=O)[nH]3)CC2)cc1C` [Compound C22, 6-{4-[4-(6-Methoxy-5-methyl-pyridine-3-carbonyl)-piperidin-1-yl]-2,2-dimethyl-4-oxo-butyl}-1-methyl-1,5-dihydro-pyrazolo[3,4-d]pyrimidin-4-one], the IC50 against PARP-1 is greater than 30000 nM; on TNKS2 it was 1.8e-09 M; on TNKS1, 2.2e-09 M. Further, in the assay on Tankyrases, the 50% effective concentration (EC50) is 7.9e-09 M.
